Laboratory results published in patent US9732094B2, “Arylquinazolines” (Merck Patent GmbH, priority 2013, dated 2017).
Like-named read-outs stand apart in the source and are kept apart here.

Tests used:
DNA-PK = DNA-PK (Homo sapiens (Human), UniProt P78527); assay: DNA-PK assay (biochemical), flashplate 33P-ATP kinase assay; details: biochemical DNA-PK assay
Summary of the method: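 Reactions ran in streptavidin-coated flashplates and were halted by 200 mM EDTA, with a further 30 min at room temperature before saline washing.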

Kv11.1 (hERG) = Kv11.1 (hERG) (Homo sapiens (Human), UniProt Q12809); assay: Kv11.1 (hERG) ion channel activity (patch clamp assay), HEK293 cells transfected with hERG gene; details: hERG patch clamp assay (cells without asterisk)
[1] = biological target: DNA-PK phosphorylation at serine 2056 (Homo sapiens (Human), UniProt P78527); assay: DNA-PK phosphorylation at serine 2056 (cellular), bleomycin-treated HCT116 cells, ELISA; assay type: cell-based; details: cellular DNA-PK phosphorylation at serine 2056, HCT116; read-out: IC50 pDNA-PK
Summary of the method: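 Test compounds and bleomycin (10 μM) are added to adherent HCT116 cells for 6 h. Detection uses an HRP-based chemiluminescent ELISA, with phospho-DNA-PK signals standardised to total protein.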

Kv11.1 (hERG), sequence (Q12809 whole entry): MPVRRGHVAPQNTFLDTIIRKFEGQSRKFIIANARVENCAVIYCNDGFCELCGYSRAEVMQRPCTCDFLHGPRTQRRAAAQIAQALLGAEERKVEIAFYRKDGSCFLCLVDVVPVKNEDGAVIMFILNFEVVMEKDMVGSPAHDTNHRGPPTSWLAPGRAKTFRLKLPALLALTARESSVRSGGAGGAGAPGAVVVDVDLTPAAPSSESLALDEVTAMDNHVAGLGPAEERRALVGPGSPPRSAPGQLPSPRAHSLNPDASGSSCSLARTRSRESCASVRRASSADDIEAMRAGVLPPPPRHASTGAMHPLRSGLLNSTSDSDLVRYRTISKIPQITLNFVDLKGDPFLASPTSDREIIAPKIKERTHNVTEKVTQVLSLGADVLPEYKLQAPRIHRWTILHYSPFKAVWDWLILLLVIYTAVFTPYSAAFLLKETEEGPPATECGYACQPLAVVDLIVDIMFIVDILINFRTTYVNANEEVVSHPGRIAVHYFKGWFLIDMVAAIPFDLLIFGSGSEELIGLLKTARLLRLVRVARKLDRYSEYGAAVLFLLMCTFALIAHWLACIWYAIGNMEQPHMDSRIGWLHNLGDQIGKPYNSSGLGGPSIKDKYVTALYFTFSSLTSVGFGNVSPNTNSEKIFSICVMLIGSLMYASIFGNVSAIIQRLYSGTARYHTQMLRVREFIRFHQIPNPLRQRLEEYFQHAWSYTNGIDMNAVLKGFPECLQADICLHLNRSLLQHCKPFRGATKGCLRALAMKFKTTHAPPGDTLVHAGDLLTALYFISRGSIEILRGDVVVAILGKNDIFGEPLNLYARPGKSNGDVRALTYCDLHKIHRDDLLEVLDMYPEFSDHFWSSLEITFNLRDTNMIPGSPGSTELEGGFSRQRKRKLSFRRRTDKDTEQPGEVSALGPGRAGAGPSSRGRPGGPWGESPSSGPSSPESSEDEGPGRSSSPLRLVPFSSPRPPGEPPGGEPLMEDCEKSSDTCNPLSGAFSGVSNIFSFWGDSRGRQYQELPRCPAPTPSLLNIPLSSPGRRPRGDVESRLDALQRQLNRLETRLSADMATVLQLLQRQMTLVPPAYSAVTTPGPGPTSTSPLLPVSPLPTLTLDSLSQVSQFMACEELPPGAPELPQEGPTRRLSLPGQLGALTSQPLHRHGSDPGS

Structure (SMILES)	IC50 (DNA-PK) [nM]	Ki (Kv11.1 (hERG); read-out: Ki [Kv1.11 hERG]) [nM]	IC50 [1] [nM]	Ki (Kv11.1 (hERG); Ki [Kv1.11 hERG]) [nM]
Cc1cc(C(O)c2cc(-c3ncnc4cc(N5CCOCC5)ccc34)c(F)cc2Cl)n(C)c(=O)c1 (stereo not drawn) [Example 339, 6-{[2-Chloro-4-fluoro-5-(7-morpholin-4-yl-quinazolin-4-yl)-phenyl]hydroxy-methyl}-1,4-dimethyl-1H-pyridin-2-one]	7 to 30	> 25000	500 to 5000	
Cc1cc(C(O)c2ccc(F)c(-c3ncnc4cc(N5CCOCC5)ccc34)c2)n(C)c(=O)c1 (stereo not drawn) [Example 340, 6-{[4-Fluoro-3-(7-morpholin-4-yl-quinazolin-4-yl)-phenyl]hydroxy-methyl}-1,4-dimethyl-1H-pyridin-2-one]	< 3	> 25000	500 to 5000	
OC(c1cc(-c2ncnc3cc(N4CCOCC4)ccc23)c(F)cc1F)c1nncc2sccc12 (stereo not drawn) [Example 341, [2,4-Difluoro-5-(7-morpholin-4-yl-quinazolin-4-yl)-phenyl]thieno[2,3-d}-pyridazin-4-yl-methanol]	< 3		< 500	15000 to 25000
OC(c1cc(-c2ncnc3cc(N4CCOCC4)ccc23)c(F)cc1F)c1nncc2ccsc12 (stereo not drawn) [Example 342, [2,4-Difluoro-5-(7-morpholin-4-yl-quinazolin-4-yl)-phenyl]thieno[2,3-d}-pyridazin-7-yl-methanol]	< 3	> 25000	< 500	
OC(c1ccc(F)c(-c2ncnc3cc(N4CCOCC4)ccc23)c1)c1nnc2ccccn12 (stereo not drawn) [Example 343, [4-Fluoro-3-(7-morpholin-4-yl-quinazolin-4-yl)-phenyl]-[1,2,4]-triazolo[4,3-a]pyridin-3-ylmethanol]	< 3		500 to 5000	15000 to 25000
OC(c1ccc(F)c(-c2ncnc3cc(N4CCOCC4)ccc23)c1)c1nnc2ccccn12 (stereo not drawn) [Example 344, [4-Fluoro-3-(7-morpholin-4-yl-quinazolin-4-yl)-phenyl]-[1,2,4]-triazolo[4,3-a]pyridin-3-ylmethanol]	< 3	> 25000	5000 to 10000	
OC(c1ccc(F)c(-c2ncnc3cc(N4CCOCC4)ccc23)c1)c1ncnn2cccc12 (stereo not drawn) [Example 345, [4-Fluoro-3-(7-morpholin-4-yl-quinazolin-4-yl)-phenyl]pyrrolo[2,1-f]-[1,2,4]triazin-4-yl-methanol]	< 3	< 10000	< 500	
Cn1cnc2c(C(O)c3cc(-c4ncnc5cc(N6CCOCC6)ccc45)c(F)cc3F)ncnc21 (stereo not drawn) [Example 346, [2,4-Difluoro-5-(7-morpholin-4-yl-quinazolin-4-yl)-phenyl]-(9-methyl-9H-purin-6-yl)-methanol]	7 to 30		10000 to 30000	15000 to 25000
Cn1cnc2c(C(O)c3cc(-c4ncnc5cc(N6CCOCC6)ccc45)c(F)cc3F)ncnc21 (stereo not drawn) [Example 347, [2,4-Difluoro-5-(7-morpholin-4-yl-quinazolin-4-yl)-phenyl]-(9-methyl-9H-purin-6-yl)-methanol]	3 to 7	> 25000	500 to 5000	
NC(=O)C(c1cc(-c2ncnc3cc(N4CCOCC4)ccc23)c(F)cc1F)c1nccn2cccc12 (stereo not drawn) [Example 348, 2-[2,4-Difluoro-5-(7-morpholin-4-yl-quinazolin-4-yl)-phenyl]-2-pyrrolo-[1,2-a]pyrazin-1-yl-acetamide]	< 3		500 to 5000	10000 to 15000
Cc1nccnc1Cc1ccc(F)c(-c2ncnc3cc(N4CCOCC4)ccc23)c1 [Example 349, 4-[2-Fluoro-5-(3-methyl-pyrazin-2-ylmethyl)phenyl]-7-morpholin-4-yl-quinazoline]	3 to 7	> 25000	< 500	
OC(c1cc(-c2ncnc3cc(N4CCOCC4)ccc23)c(F)cc1F)c1cccc2nncn12 (stereo not drawn) [Example 350, [2,4-Difluoro-5-(7-morpholin-4-yl-quinazolin-4-yl)-phenyl]-[1,2,4]-triazolo[4,3-a]pyridin-5-ylmethanol]	3 to 7	> 25000	5000 to 10000	
OC(c1ccc(F)c(-c2ncnc3cc(N4CCOCC4)ccc23)c1)c1nccn2cnnc12 (stereo not drawn) [Example 351, [4-Fluoro-3-(7-morpholin-4-yl-quinazolin-4-yl)-phenyl]-[1,2,4]-triazolo[4,3-a]-pyrazin-8-ylmethanol]	7 to 30	> 25000	10000 to 30000	
COC(c1ccc(F)c(-c2ncnc3cc(N4CCOCC4)ccc23)c1)c1nccnc1C (stereo not drawn) [Example 353, 4-{2-Fluoro-5-[methoxy-(3-methyl-pyrazin-2-yl)methyl]-phenyl}-7-morpholin-4-ylquinazoline]	7 to 30	> 25000	10000 to 30000	
Cc1cnc(C(O)c2ccc(F)c(-c3ncnc4cc(N5CCOCC5)ccc34)c2)c(C)n1 (stereo not drawn) [Example 354, (3,5-Dimethyl-pyrazin-2-yl)-[4-fluoro-3-(7-morpholin-4-yl-quinazolin-4-yl)-phenyl]methanol]	< 3	> 25000	< 500	
Cc1cnc(C(O)c2cc(-c3ncnc4cc(N5CCOCC5)ccc34)c(F)cc2F)c(C)n1 (stereo not drawn) [Example 355, [2,4-Difluoro-5-(7-morpholin-4-yl-quinazolin-4-yl)-phenyl]-(3,5-dimethyl-pyrazin-2-yl)methanol]	3 to 7		500 to 5000	15000 to 25000
OC(c1ccc(F)c(-c2ncnc3cc(N4CCOCC4)ccc23)c1)c1nccn2cccc12 (stereo not drawn) [Example 356, [4-Fluoro-3-(7-morpholin-4-yl-quinazolin-4-yl)-phenyl]pyrrolo[1,2-a]-pyrazin-1-ylmethanol]	< 3	< 10000	< 500	
COc1ccc(C(O)c2cc(-c3ncnc4cc(N5CCOCC5)ccc34)ccc2F)nn1 (stereo not drawn) [Example 357, [2-Fluoro-5-(7-morpholin-4-yl-quinazolin-4-yl)-phenyl]-(6-methoxy-pyridazin-3-yl)-methanol]	3 to 7	> 25000	500 to 5000	
OC(c1cc(-c2ncnc3cc(N4CCOCC4)ccc23)c(F)cc1F)c1nccn2cccc12 (stereo not drawn) [Example 358, [2,4-Difluoro-5-(7-morpholin-4-yl-quinazolin-4-yl)-phenyl]pyrrolo[1,2-a]-pyrazin-1-ylmethanol]	< 3		< 500	10000 to 15000
OC(c1cc(-c2ncnc3cc(N4CCOCC4)ccc23)c(F)cc1Cl)c1nccn2cccc12 (stereo not drawn) [Example 359, [2-Chloro-4-fluoro-5-(7-morpholin-4-yl-quinazolin-4-yl)-phenyl]pyrrolo[1,2-a]-pyrazin-1-ylmethanol]	< 3	< 10000	< 500	
Cn1c(C(O)c2ccc(F)c(-c3ncnc4cc(N5CCOCC5)ccc34)c2)nccc1=O (stereo not drawn) [Example 360, 2-{[4-Fluoro-3-(7-morpholin-4-yl-quinazolin-4-yl)-phenyl]hydroxy-methyl}-3-methyl-3H-pyrimidin-4-one]	3 to 7	> 25000	500 to 5000	
OC(c1cc(-c2ncnc3cc(N4CCOCC4)ccc23)ccc1Cl)c1nccn2cccc12 (stereo not drawn) [Example 361, (2-Chloro-5-(7-morpholin-4-yl-quinazolin-4-yl)-phenyl]pyrrolo[1,2-a]-pyrazin-1-ylmethanol]	3 to 7	< 10000	500 to 5000	
OC(c1cc(-c2ncnc3cc(N4CCOCC4)ccc23)ccc1Cl)c1ncnn2cccc12 (stereo not drawn) [Example 362, [2-Chloro-5-(7-morpholin-4-yl-quinazolin-4-yl)-phenyl]pyrrolo[2,1-f]-[1,2,4]triazin-4-yl-methanol]	3 to 7	< 10000	500 to 5000	
Cn1c(C(O)c2cc(-c3ncnc4cc(N5CCOCC5)ccc34)ccc2F)cccc1=O (stereo not drawn) [Example 365, 6-{[2-Fluoro-5-(7-morpholin-4-yl-quinazolin-4-yl)-phenyl]hydroxy-methyl}-1-methyl-1H-pyridin-2-one]	3 to 7	> 25000	500 to 5000	
Cn1c(C(O)c2cc(-c3ncnc4cc(N5CCOCC5)ccc34)ccc2F)cccc1=O (stereo not drawn) [Example 366, 6-{[2-Fluoro-5-(7-morpholin-4-yl-quinazolin-4-yl)-phenyl]hydroxy-methyl}-1-methyl-1H-pyridin-2-one]	7 to 30	> 25000	5000 to 10000	
O=c1ccc(C(O)c2ccc(F)c(-c3ncnc4cc(N5CCOCC5)ccc34)c2)n[nH]1 (stereo not drawn) [Example 367, 6-{[4-Fluoro-3-(7-morpholin-4-yl-quinazolin-4-yl)-phenyl]hydroxy-methyl}-2H-pyridazin-3-one]	< 3	> 25000	500 to 5000	
Cn1c(C(O)c2cc(-c3ncnc4cc(N5CCOCC5)ccc34)c(F)cc2Cl)nccc1=O (stereo not drawn) [Example 368, 2-{[2-Chloro-4-fluoro-5-(7-morpholin-4-yl-quinazolin-4-yl)-phenyl]hydroxy-methyl}-3-methyl-3H-pyrimidin-4-one]	7 to 30	> 25000	5000 to 10000	
OC(c1cc(-c2ncnc3cc(N4CCOCC4)ccc23)ccc1Cl)c1nccn2ccnc12 (stereo not drawn) [Example 369, [2-Chloro-5-(7-morpholin-4-yl-quinazolin-4-yl)-phenyl]imidazo-[1,2-a]pyrazin-8-yl-methanol]	7 to 30		5000 to 10000	15000 to 25000
Cn1cnc2c(C(O)c3cc(-c4ncnc5cc(N6CCOCC6)ccc45)ccc3F)ncnc21 (stereo not drawn) [Example 370, [2-Fluoro-5-(7-morpholin-4-yl-quinazolin-4-yl)-phenyl]-(9-methyl-9H-purin-6-yl)-methanol]	7 to 30	> 25000	500 to 5000	
